{"source": "patent US7169604B1", "about": "“Method for PR-39 peptide mediated selective inhibition of IκBα degradation” (Beth Israel Deaconess Medical Center, priority 1998, dated 2007)", "key": {"IκBα [1]": {"tested_on": "IκBα", "assay": "IκBα phosphorylation in U937 cell culture", "format": "cell-based, human", "settings": "U937 cells, 10 μM pretreatment, TNFα 1 ng/ml, 45 min", "procedure": "To explore potential mechanisms of this selective inhibition, the effect of peptide administration on IκBα phosphorylation and ubiquitination was studied. It is known that TNF-α treatment leads to phosphorylation of IκBα, which is required for its subsequent ubiquitination. The result is indicated by FIG. 4A.\nU937 cells cultured in the absence (−) or presence (+) of pretreatment with 10 μM PR-39 were exposed to 1 ng/ml TNFα. 45 min later the cells were lysed and subjected to SDS-PAGE and Western blotting with anti-IκBα antibody. Note the increased amount of the typical-appearing phosphorylated IκKBα band in PR-39 treated cells."}, "ECV304 cells": {"tested_on": "ECV304 cells", "assay": "Cell growth in culture (Coulter cell counts)", "format": "cell-based, human", "settings": "10 μM, 48 hours", "procedure": "Prolonged exposure to proteasome inhibitors tend to induce apoptosis in cell culture. To assess the potential cytotoxicity of PR-39, ECV304 cells were cultured in the presence of 10 μM of PR-39, MG132 or lactacystin.\n50,000 ECV304 cells were plated in 6 well plates in 10% FBS-M199 and synchronized by serum deprivation in 0.5% FBS-DMEM for 48 hr. At the end of that time, cell culture medium was changed to 10% FBS-M199 and 10 μM of PR-39, lactacystin or buffer (control) were added. Forty eight hours later cell counts were determined using a Coulter Counter (Coulter Instruments, Inc.). All experiments were performed in triplicate and repeated 2 times (mean±SD)."}, "IκBα [2]": {"tested_on": "IκBα", "assay": "TNF-α induced degradation of IκBα in U937 cells", "format": "cell-based, human", "settings": "45 min pretreatment with 100 nM, TNF-α 1 ng/ml, 10 min", "procedure": "Tumor necrosis factor (TNF)-α is known to induce rapid degradation of IκBα by the Ub-proteasome pathway.\nAs shown by FIG. 1E, PR-39 prevents TNF-a induced degradation of IκBα. U937 cells were cultured in 10% FBs-RPMI medium in the absence (−) or presence of TNF-a (1 ng/ml). 10 min following TNF-α addition, the cells were washed and IκBα protein levels assessed by Western blotting.\nNote that a […] 45 min of pretreatment with 100 nM of PR-39 or 10 μM of MG132 or lactacystin (LC) prior to addition of blocked TNF-α, blocked cytokine-induced degradation of IκBα expression."}, "[3]": {"target": "T1, α7 subunit of the 20S proteasome (Mus musculus, UniProt O70435)", "T1 construct": "made in house; host or cells: yeast (Y190 for the screen, CG1945 for the deletion analysis)", "T1 sequence (O70435 1-255)": "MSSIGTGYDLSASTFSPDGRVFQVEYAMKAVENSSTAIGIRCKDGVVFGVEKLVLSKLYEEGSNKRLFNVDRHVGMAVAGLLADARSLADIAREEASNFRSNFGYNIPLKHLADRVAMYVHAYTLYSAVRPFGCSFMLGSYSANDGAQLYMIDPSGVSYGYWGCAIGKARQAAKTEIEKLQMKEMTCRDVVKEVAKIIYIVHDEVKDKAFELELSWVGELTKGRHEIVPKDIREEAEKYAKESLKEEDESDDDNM", "assay": "Yeast two-hybrid binding of PR-39 to α7 and its fragments", "settings": "growth of lacZ+ colonies on selective medium; deletion mutants of mouse α7", "from_the_text": "Two-hybrid screening was done using Clontech MATCHMAKER GAL4 System 2 (Clontech). cDNA of porcine PR39 peptide corresponding to the 4th exon (amino acids 131 to 169) was subcloned into pAS2-1 vector as bait. Mouse embryo 3T3 MATCHMAKER cDNA library (Clontech) was screened in the yeast Y190 strain. Plasmids from HIS3/LacZ positive clones were sequenced and co-transformed with bait plasmid back into the Y190 strain to confirm the interaction.\nTo identify possible intracellular targets of PR-39 peptide action, a yeast two-hybrid screen of mouse CDNA library was performed using the unique 4th exon DNA sequence of porcine PR-39 gene as “bait”. […] All four clones encoded overlapping identical cDNA sequences which are highly homologous to the sequence of the human α7 (HC8) subunit of the 20S proteasome (GeneBank accession AF055983).\nDeletion mutants of the mouse α7 subunit were cloned into yeast two-hybrid vector, and the extent of growth of lacZ+ colonies on selective medium following co-transformation with PR-39 construct in the yeast CG1945 was determined."}, "ICAM-1 and VCAM-1": {"tested_on": "ICAM-1 and VCAM-1", "assay": "ICAM-1 and VCAM-1 expression in mouse infarct model", "format": "in vivo", "settings": "transgenic αMHC-PR-39 mice vs control mice, coronary artery ligation, 1, 3 or 7 days", "from_the_text": "NFκB-dependent transcription is also activated following induction of ischemia in the heart, leading to increased expression of several adhesion molecules, including ICAM-1 and VCAM-1. To test the effect of PR-39 peptide on NFκB-dependent gene expression in this model, we assessed VCAM-1 and ICAM-1 protein levels following induction of myocardial infarction in transgenic mice expressing PR-39 cDNA in cardiac myocytes (αMHC-PR-39) and age-matched control mice. The result is given by FIG. 2D.\nTransgenic mice stably expressing PR-39 in cardiac myocytes (αMHC-PR-39 mice) or litter mate controls (control mice) were subjected to acute coronary artery ligation as described (30) and randomized to intraperitoneal implantation of Alzet minipumps (Alza Corp, Palo Alto, Calif.) delivering 1 μg/kg/24 hr of PR-39 or buffer. Myocardial tissues collected 1, 3 or 7 days later were subjected to Western blot analysis for ICAM-1 and VCAM-1 gene expression that were normalized to expression levels prior to induction of infarction. Note the rapid increase in both ICAM-1 and VCAM-1 expression in control but not αMHC-PR-39 mice.\nIn contrast, induction of myocardial infarction had no effect on either ICAA-1 or VCAM-1 protein levels in αMHC-PR-39 mice."}, "IκBα [4]": {"tested_on": "IκBα", "assay": "IκBα degradation in mouse pancreas, caerulein-induced acute pancreatitis", "format": "in vivo", "settings": "10 mg/kg i.v. 1 hour before caerulein 50 μg/kg i.v.; 30 min later", "procedure": "Male mice weighing 20-25 g (ICR, Charles River Laboratories, Wilmington, Mass.) were pretreated with PR-39 (10 mg/kg, i.v.) or physiological saline 1 hour before injecting 50 μg/kg i.v. of caerulein (Research Plus, Bayonne, N.J.) to induce acute pancreatitis. 30 min later the animals were sacrificed in a CO2 chamber and a 75-100 mg piece of pancreas was removed for Western blotting and NFκB gel shift assays.\nAs empirically shown, induction of acute pancreatitis by treatment with the cholecystokinin analog caerulein leads to the prompt disappearance of IκBα (FIG. 2B) and activation of NFκB-dependent transcription in the pancreas (FIG. 2C)."}}, "note": "Ends that are not written are not given here."}
{"sequence": "RRRPRPPYLPRPRPPPFFPPRLPPRIPPGFPPRFPPRFP [PR-39]", "values": [{"measurement": "amount of phosphorylated IκBα", "setting": "IκBα [1]", "value": "increased the amount of the phosphorylated form of IκBα"}, {"measurement": "cell counts", "setting": "ECV304 cells", "value": "lack of significant growth inhibition"}, {"measurement": "TNF-α caused decline of the level of IκBα", "setting": "IκBα [2]", "value": "markedly reduced"}, {"measurement": "binding of PR-39 to α7 and its fragments", "setting": "[3]", "value": "only the full length a7 construct was able to bind to PR-39"}, {"measurement": "NFκB-dependent gene expression (ICAM-1 and VCAM-1 protein levels)", "setting": "ICAM-1 and VCAM-1", "value": "blocks NFκB-dependent gene expression"}, {"measurement": "IκBα in mouse pancreas (Western blotting)", "setting": "IκBα [4]", "value": "preservation of IκBα"}]}
